Measured values as given in ChEMBL document CHEMBL4609983, “Pan-specific and partially selective dye-labeled peptidic inhibitors of the polycomb paralog proteins” (Bioorg Med Chem, 2020).
Calls of active or inactive are those of the source. No cut-off for these calls is given here. Non-standard residues stand in square brackets, D forms with d. Residues, ends and D or L forms follow the SMILES beside them. *: point of attachment. Biotin = O=C1N[C@H]2[C@H](CS[C@H]2CCCCC(=O)*)N1; Lys(Me3) = C[N+](C)(C)CCCC[C@H](N)C(=O)O; Benzoyl(4-Br) = O=C(c1ccc(Br)cc1)*

Tests used:
[1] = biological target: T1, Chromodomain Y-like protein (Homo sapiens) (UniProt Q9Y232); experiment: Binding affinity to recombinant human CDYL1B by microarray based assay
T1 sequence (whole entry): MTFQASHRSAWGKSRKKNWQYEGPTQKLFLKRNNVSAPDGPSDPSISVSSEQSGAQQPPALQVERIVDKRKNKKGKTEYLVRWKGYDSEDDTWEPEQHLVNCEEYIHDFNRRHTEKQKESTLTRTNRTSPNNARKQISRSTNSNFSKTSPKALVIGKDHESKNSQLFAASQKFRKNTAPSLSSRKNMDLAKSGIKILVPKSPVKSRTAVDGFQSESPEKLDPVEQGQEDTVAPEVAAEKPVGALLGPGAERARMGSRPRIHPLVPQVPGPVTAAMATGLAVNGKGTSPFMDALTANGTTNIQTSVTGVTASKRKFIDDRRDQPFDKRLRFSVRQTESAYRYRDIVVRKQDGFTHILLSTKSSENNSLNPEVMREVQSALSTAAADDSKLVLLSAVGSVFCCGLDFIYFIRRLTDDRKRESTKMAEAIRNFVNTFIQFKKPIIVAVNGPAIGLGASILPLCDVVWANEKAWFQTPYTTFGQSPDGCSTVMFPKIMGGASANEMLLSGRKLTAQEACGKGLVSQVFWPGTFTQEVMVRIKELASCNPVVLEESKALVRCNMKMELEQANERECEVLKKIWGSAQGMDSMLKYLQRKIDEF

[2] = biological target: T2, Chromobox protein homolog 6 (Homo sapiens) (UniProt O95503); experiment: Binding affinity to recombinant human CBX6 by microarray based assay
T2 sequence (whole entry): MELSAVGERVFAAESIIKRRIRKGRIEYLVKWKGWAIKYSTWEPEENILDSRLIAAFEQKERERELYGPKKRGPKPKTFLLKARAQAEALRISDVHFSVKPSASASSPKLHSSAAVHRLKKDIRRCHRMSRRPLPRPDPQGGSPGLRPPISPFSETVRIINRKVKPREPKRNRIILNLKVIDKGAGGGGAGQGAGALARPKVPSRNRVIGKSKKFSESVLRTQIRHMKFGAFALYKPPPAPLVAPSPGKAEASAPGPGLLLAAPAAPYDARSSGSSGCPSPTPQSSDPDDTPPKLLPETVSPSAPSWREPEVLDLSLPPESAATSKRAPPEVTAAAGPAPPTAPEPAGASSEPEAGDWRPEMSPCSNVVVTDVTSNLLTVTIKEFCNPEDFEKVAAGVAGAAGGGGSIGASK

- Activity [1]: Active
- Activity [2]: Active
SMILES: CC(C)C[C@H](NC(=O)[C@H](CO)NC(=O)[C@H](CCCC[N+](C)(C)C)NC(=O)[C@H](Cc1ccc(O)cc1)NC(=O)[C@H](C)NC(=O)[C@H](Cc1ccccc1)NC(=O)c1ccc(Br)cc1)C(=O)N[C@@H](CCCCNC(=O)CCCC[C@@H]1SC[C@@H]2NC(=O)N[C@@H]21)C(N)=O ({Benzoyl(4-Br)}-FAY[Lys(Me3)]SLK(Biotin)-NH2)
